From US4857650A, “Novel renin inhibitory amino acid derivatives” (Kissei Pharmaceutical Co., Ltd., priority 1985, dated 1989)
pIC50: −log10 of the molar value.

Assays:
human renin = target: T1, human renin (Homo sapiens, UniProt P00797); assay: Human renin-sheep renin substrate reaction system in vitro; format: biochemical; conditions: pH 7.4, 15 minutes at 37° C., read-out: IC50 (molar concentration)
T1 sequence (P00797 67-406): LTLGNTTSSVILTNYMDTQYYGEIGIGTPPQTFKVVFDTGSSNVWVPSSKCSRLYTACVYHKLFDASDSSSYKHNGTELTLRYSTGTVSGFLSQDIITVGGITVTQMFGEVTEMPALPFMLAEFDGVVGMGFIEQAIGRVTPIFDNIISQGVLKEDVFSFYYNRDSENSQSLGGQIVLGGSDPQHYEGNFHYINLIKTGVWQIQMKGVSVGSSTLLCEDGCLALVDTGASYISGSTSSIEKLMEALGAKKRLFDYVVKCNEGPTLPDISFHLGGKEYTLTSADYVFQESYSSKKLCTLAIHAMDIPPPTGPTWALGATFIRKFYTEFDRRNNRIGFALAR
Protocol: Human resin-sheep resin substrate reaction system in vitro To a mixture containing 200 μl of a 125 mM pyrophosphate buffer (pH 7.4), 25 μl of a 20 mM aqueous solution of […] as an angiotensin converting enzyme inhibitor, 50 μl of semipurified sheep renin substrate ([…]), 50 μl of dimethyl sulfoxide solution of an amino acid derivative of the present invention (or 50 μl of dimethyl sulfoxide as a control) and 150 μl of deionized water was added 25 μl of purified human renin (20-30 ng angiotensin I/ml/hr). The mixture was incubated for 15 minutes on a water bath at 37° C., and the reaction mixture was allowed to stand for 5 minutes on a water bath at 100° C. to stop the reaction. After cooling, 200 μl of the solution were taken up and the amount of angiotensin I produced by the addition of renin was determined by radioimmunoassay. The inhibitory effect was calculated by the following equation. [formula] The molar concentration which produced 50% inhibition (IC50) was calculated from the inhibition value obtained, and the results are shown below.

[1] = target: T2, renin in human high renin plasma (Homo sapiens, UniProt P00797); assay: Renin inhibitory effect in a human high renin plasma; format: biochemical; conditions: pH 7.4, 30 minutes at 37° C., read-out: IC50 (molar concentration)
T2 construct: 500 μl of human high renin plasma; from tissue; host or cells: human high renin plasma
T2 sequence (P00797 67-406): T1 sequence (P00797 67-406)
Protocol: Renin inhibitory effect in a human high renin plasma A mixture of 350 μl of a 0.5M phosphate buffer containing 14 mM EDTA 2Na and a 0.3% neomycin sulfate, which was adjusted to the pH of 7.4, 50 μl of a 20 mM an aqueous solution of […] as an angiotensin converting enzyme inhibitor and 100 μl of dimethyl sulfoxide solution containing an amino acid compound of the present invention was added to 500 μl of human high renin plasma. […] was incubated for 30 minutes at 37° C. in a water bath. A 200 μl sample was withdrawn from the incubated mixture, chilled immediately in an ice bath, and the amount of angiotensin I produced was determined by radioimmunoassay, and remaining of the mixture (200 μ[…] 4° C. in an ice bath. The amount of angiotensin I produced in the incubated mixture at 4° C. in an ice bath was determined by radioimmunoassay. As a control, the same procedure as above was carried out by using 100 μl of dimethyl sulfoxide alone in place of the 100 μl of dimethyl sulfoxide solution containing an amino acid compound of the present invention. The inhibitory effect was calculated by the following equation. [formula] The molar concentration which produced 50% inhibition (IC50) was calculated from the inhibition value obtained, and the results are shown below.

common marmoset = assay: Hypotensive effect in marmoset (furosemide-induced high renin state); format: in vivo; conditions: oral
Protocol: The experiment was carried out by using common marmoset as described in K. G. Hofbauer et al., Clinical and Experimental hypertension, Vol. A5, Nos. 7 & 8 (1983), pages 1237-1247.
Furosemide was orally administered three times to common marmoset at 15 mg per kilogram per day every other day to create a high renin state. Blood pressure of conscious marmoset was measured 2 days after the last administration of furosemide.
Measurement of blood pressure
Two conscious male marmosets weighing 365-380 g were fixed. Mean blood pressure at tail artery was recorded on pretismograph instument. The amino acid compound of the present invention, administered orally using a catheter.

| Structure (SMILES) | pIC50 (human renin) | pIC50 [1] | also measured |
| --- | --- | --- | --- |
| COC(=O)CC(Cc1cccc2ccccc12)C(=O)N[C@@H](Cc1c[nH]cn1)C(=O)N[C@@H](CC(C)C)C(O)C(=O)OC(C)C (mixture of isomers) [Isopropyl (2RS,3S)-3-[3-(methoxycarbonyl)-2-(1-naphthylmethyl)propionyl-L-histidyl]amino-2-hydroxy-5-methylhexanoate] | 7.60 | 7.25 | Blood pressure (common marmoset; 100 mg/kg, n = 2, 1 hour after administration, control 94.0 in (a), 90.9 in (c)): 78.6 mmHg; Blood pressure (common marmoset; 100 mg/kg, n = 2, 2 hours after administration, control 94.0 in (a), 90.9 in (c)): 76.9 mmHg; Blood pressure (common marmoset; 100 mg/kg, n = 2, 3 hours after administration, control 94.0 in (a), 90.9 in (c)): 69.4 mmHg; Blood pressure (common marmoset; 100 mg/kg, n = 2, 5 hours after administration, control 94.0 in (a), 90.9 in (c)): 76.0 mmHg; Blood pressure (common marmoset; 100 mg/kg, n = 2, 7 hours after administration, control 94.0 in (a), 90.9 in (c)): 77.8 mmHg; Blood pressure (common marmoset; 100 mg/kg, n = 2, 9 hours after administration, control 90.9 in (c)): 85.3 mmHg |
| COC(=O)CN(C)C(=O)CC(Cc1cccc2ccccc12)C(=O)N[C@@H](Cc1c[nH]cn1)C(=O)N[C@@H](CC(C)C)C(O)C(=O)OC(C)C (mixture of isomers) [Isopropyl(2RS,3S)-3-{N-[2-(1-naphthylmethyl)-3-(N-methyl-N-methoxycarbonylmethylcarbamoyl)propionyl]-L-histidyl}amino-2-hydroxy-5-methylhexanoate] | 7.77 | 7.70 | Blood pressure (common marmoset; 30 mg/kg, n = 2, 1 hour after administration, control 95.4): 62.1 mmHg; Blood pressure (common marmoset; 30 mg/kg, n = 2, 2 hours after administration, control 95.4): 59.8 mmHg; Blood pressure (common marmoset; 30 mg/kg, n = 2, 3 hours after administration, control 95.4): 66.5 mmHg; Blood pressure (common marmoset; 30 mg/kg, n = 2, 5 hours after administration, control 95.4): 84.9 mmHg; Blood pressure (common marmoset; 30 mg/kg, n = 2, 7 hours after administration, control 95.4): 88.3 mmHg |
| COC(=O)CN(C)C(=O)CC(Cc1cccc2ccccc12)C(=O)N[C@@H](Cc1c[nH]cn1)C(=O)N[C@@H](CC(C)C)C(O)C(=O)OC (mixture of isomers) [Methyl(2RS,3S)-3-{N-[2-(1-naphthylmethyl)-3-(N-methyl-N-methoxycarbonylmethylcarbamoyl)propionyl]-L-histidyl}amino-2-hydroxy-5-methylhexanoate] | 7.92 | 7.85 |  |
| COC(=O)[C@@H]1CCCN1C(=O)CC(Cc1cccc2ccccc12)C(=O)N[C@@H](Cc1c[nH]cn1)C(=O)N[C@@H](CC(C)C)C(O)C(=O)NCCC(C)C (stereo partly drawn) [(2RS,3S)-3-{N-[2-(1-Naphthylmethyl)-3-(2S-methoxycarbonylpyrrolidinocarbonyl)propionyl]-L-histidyl}amino-2-hydroxy-5-methylhexanoylisoamylamide] | 7.08 | 6.54 |  |
| CC(C)C[C@H](NC(=O)[C@H](Cc1c[nH]cn1)NC(=O)C(CC(=O)N1CCC[C@H]1CO)Cc1cccc2ccccc12)C(O)C(=O)OC(C)C (stereo partly drawn) [Isopropyl(2RS,3S)-3-{N-[2-(1-naphthylmethyl)-3-(2S-hydroxymethylpyrrolidinocarbonyl)propionyl]-L-histidyl}amino-2-hydroxy-5-methylhexanoate] | 7.64 | 6.85 |  |
| COC(=O)[C@@H]1CC(O)CN1C(=O)CC(Cc1cccc2ccccc12)C(=O)N[C@@H](Cc1c[nH]cn1)C(=O)N[C@@H](CC(C)C)C(O)C(=O)OC(C)C (stereo partly drawn) [Isopropyl(2RS,3S)-3-{N-[2-(1-naphthylmethyl)-3-(4-hydroxy-2S-methoxycarbonylpyrrolidinocarbonyl)-propionyl]-L-histidyl}amino-2-hydroxy-5-methylhexanoate] | 7.39 | 6.72 |  |
| CC(C)C[C@H](NC(=O)[C@H](Cc1c[nH]cn1)NC(=O)C(CC(=O)N[C@@H](C)C(N)=O)Cc1cccc2ccccc12)C(O)C(=O)OC(C)C (stereo partly drawn) [Isopropyl(2RS,3S)-3-{N-{2-(1-naphthylmethyl)-3-[N-(1S-carbamoylethyl)carbamoyl]propionyl}-L-histidyl}amino-2-hydroxy-5-methylhexanoate] | 6.36 | 6.62 |  |
| COC(=O)[C@H](C)NC(=O)CC(Cc1cccc2ccccc12)C(=O)N[C@@H](Cc1c[nH]cn1)C(=O)N[C@@H](CC(C)C)C(O)C(=O)OC(C)C (stereo partly drawn) [Isopropyl(2RS,3S)-3-{N-{2-(1-naphthylmethyl)-3-[N-(1S-methoxycarbonylethyl)carbamoyl]propionyl}-L-histidyl}amino-2-hydroxy-5-methylhexanoate] | 6.52 | 6.68 |  |
| COC(=O)C[C@@H](C(=O)OC)N(C)C(=O)CC(Cc1cccc2ccccc12)C(=O)N[C@@H](Cc1c[nH]cn1)C(=O)N[C@@H](CC(C)C)C(O)C(=O)OC(C)C (stereo partly drawn) [Isopropyl(2RS,3S)-3-{N-{2-(1-naphthylmethyl)-3-[N-methyl-N-(1S,2-bismethoxycarbonylethyl)carbamoyl]-propionyl}-L-histidyl}amino-2-hydroxy-5-methylhexanoate] | 7.09 | 6.72 |  |
| COC(=O)[C@H](C)N(C)C(=O)CC(Cc1cccc2ccccc12)C(=O)N[C@@H](Cc1c[nH]cn1)C(=O)N[C@@H](CC(C)C)C(O)C(=O)OC(C)C (stereo partly drawn) [Isopropyl(2RS,3S)-3-{N-{2-(1-naphthylmethyl)-3-[N-methyl-N-(1S-methoxycarbonylethyl)carbamoyl]propionyl}-L-histidyl}amino-2-hydroxy-5-methylhexanoate] | 7.48 | 7.80 |  |
| COC(=O)[C@H]1CCCN1C(=O)CC(Cc1cccc2ccccc12)C(=O)N[C@@H](Cc1c[nH]cn1)C(=O)N[C@@H](CC(C)C)C(O)C(=O)OC(C)C (stereo partly drawn) [Isopyl(2RS,3S)-3-{N-[2-(1-naphthylmethyl)-3-(2R-methoxycarbonylpyrrolidinocarbonyl)propionyl]-L-histidyl}amino-2-hydroxy-5-methylhexanoate] | 7.55 | 7.82 |  |
| COC(=O)C(O)[C@H](CC(C)C)NC(=O)[C@H](Cc1c[nH]cn1)NC(=O)C(CC(=O)N1CCC[C@H]1C(=O)OC)Cc1cccc2ccccc12 (stereo partly drawn) [Methyl(2RS,3S)-3-{N-[2-(1-naphthylmethyl)-3-(2S-methoxycarbonylpyrrolidinocarbonyl)propionyl]-L-histidyl}amino-2-hydroxy-5-methylhexanoate] | 7.40 | 7.28 |  |
| COC(=O)[C@@H]1CCCN1C(=O)CC(Cc1cccc2ccccc12)C(=O)N[C@@H](Cc1c[nH]cn1)C(=O)N[C@@H](CC(C)C)[C@@H](O)CC(=O)NCCC(C)C (stereo partly drawn) [N-[2-(1-Naphthylmethyl)-3-(2S-methoxycarbonylpyrrolidinocarbonyl)propionyl]-L-histidyl-statylisoamylamide] | 6.92 | 6.66 |  |
| COC(=O)CN(C)C(=O)CC(Cc1cccc2ccccc12)C(=O)N[C@@H](Cc1c[nH]cn1)C(=O)N[C@@H](CC(C)C)[C@@H](O)CC(=O)NCCC(C)C (stereo partly drawn) [N-[2-(1-Naphthylmethyl)-3-(N-methyl-N-methoxycarbonylmethylcarbamoyl)propionyl]-L-histidyl-statylisoamylamide] | 7.46 | 7.46 |  |
| COC(=O)CC(Cc1cccc2ccccc12)C(=O)N[C@@H](Cc1c[nH]cn1)C(=O)N[C@@H](CC(C)C)[C@@H](O)CC(=O)NCCC(C)C (stereo partly drawn) [N-[3-(methoxycarbonyl)-2-(1-naphthylmethyl)propionyl]-L-histidyl-statylisoamylamide] | 7.43 | 7.22 |  |
